Patent US20260138961A1, “MODULATORS OF MITOCHONDRIAL DNA REPLICATION” (Pretzel Therapeutics, Inc., priority 2022, published 2026)

Each molecule was assayed against T1, POLγA:A467T (Homo sapiens, UniProt P54098, A467T) (assay: DNA polymerization assay, POLγA:A467T mutant). Conditions: stimulation of polymerase activity, primed M13mp18 ssDNA, 37° C. 2 hours; read-out: A467T AC50.
T1 sequence (P54098 1-1239 A467T): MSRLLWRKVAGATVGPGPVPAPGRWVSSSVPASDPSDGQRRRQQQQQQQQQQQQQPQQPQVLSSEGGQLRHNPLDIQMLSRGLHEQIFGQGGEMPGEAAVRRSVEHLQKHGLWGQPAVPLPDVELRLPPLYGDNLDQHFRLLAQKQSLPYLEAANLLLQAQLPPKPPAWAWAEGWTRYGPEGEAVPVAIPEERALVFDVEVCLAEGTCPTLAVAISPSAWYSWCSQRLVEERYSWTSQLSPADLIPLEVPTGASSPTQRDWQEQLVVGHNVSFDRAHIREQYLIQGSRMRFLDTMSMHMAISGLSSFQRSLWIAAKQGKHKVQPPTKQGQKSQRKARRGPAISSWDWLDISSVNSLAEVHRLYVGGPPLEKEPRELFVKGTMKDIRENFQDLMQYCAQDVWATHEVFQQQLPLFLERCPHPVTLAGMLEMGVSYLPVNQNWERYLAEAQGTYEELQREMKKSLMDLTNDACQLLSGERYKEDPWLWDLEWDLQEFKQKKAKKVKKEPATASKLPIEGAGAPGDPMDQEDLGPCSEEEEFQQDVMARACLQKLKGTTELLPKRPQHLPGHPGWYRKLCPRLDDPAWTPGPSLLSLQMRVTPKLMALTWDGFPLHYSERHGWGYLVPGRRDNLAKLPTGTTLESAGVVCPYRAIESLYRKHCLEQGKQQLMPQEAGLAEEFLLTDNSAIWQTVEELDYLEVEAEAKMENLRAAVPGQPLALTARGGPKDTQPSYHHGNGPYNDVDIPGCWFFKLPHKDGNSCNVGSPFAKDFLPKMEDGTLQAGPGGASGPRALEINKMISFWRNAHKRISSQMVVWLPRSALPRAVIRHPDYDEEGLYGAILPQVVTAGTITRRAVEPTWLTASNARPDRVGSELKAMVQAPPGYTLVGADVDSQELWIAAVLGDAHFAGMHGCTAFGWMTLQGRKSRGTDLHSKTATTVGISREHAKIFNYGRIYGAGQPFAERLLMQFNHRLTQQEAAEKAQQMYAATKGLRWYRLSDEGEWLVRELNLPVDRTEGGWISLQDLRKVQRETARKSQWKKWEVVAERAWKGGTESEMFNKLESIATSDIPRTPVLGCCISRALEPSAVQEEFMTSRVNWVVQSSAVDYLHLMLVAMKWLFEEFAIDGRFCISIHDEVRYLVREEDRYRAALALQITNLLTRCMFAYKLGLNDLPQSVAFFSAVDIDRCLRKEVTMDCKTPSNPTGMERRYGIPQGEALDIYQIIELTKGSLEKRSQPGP
T1 sequence (Q9UHN1 1-485 partner): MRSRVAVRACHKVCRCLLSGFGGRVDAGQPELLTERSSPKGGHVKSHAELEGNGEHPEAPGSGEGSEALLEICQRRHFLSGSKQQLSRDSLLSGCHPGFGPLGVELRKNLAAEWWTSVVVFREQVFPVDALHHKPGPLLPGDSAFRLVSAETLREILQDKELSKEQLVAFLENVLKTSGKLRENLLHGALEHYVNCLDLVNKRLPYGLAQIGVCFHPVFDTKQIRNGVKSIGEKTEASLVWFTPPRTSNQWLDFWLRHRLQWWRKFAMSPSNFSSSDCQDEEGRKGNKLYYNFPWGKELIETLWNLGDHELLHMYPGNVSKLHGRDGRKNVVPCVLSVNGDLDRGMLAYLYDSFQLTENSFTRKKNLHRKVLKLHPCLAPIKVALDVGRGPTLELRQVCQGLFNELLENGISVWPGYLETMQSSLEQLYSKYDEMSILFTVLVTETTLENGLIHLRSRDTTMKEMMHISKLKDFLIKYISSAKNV
Format: biochemical

Compound	AC50 [µM]
Cc1cc(S(=O)(=O)Nc2cccc(C(=O)N(C)C(C)CO)c2)c(C)cc1Cl (single isomer, unassigned) [Example 15, 3-((4-chloro-2,5-dimethylphenyl)sulfonamido)-N-(1-hydroxypropan-2-yl)-N-methylbenzamide]	> 100
Cc1csc(-c2cccc(NS(=O)(=O)c3cc(C)c(Cl)cc3C)c2)n1 [Example 20, 4-chloro-2,5-dimethyl-N-(3-(4-methylthiazol-2-yl)phenyl)benzenesulfonamide]	4
Cc1cnc(-c2cccc(NS(=O)(=O)c3cc(C)c(Cl)cc3C)c2)s1 [Example 21, 4-chloro-2,5-dimethyl-N-(3-(5-methylthiazol-2-yl)phenyl)benzenesulfonamide]	3
Cc1cc(S(=O)(=O)N(C)c2cccc(-c3nccs3)c2)c(C)cc1Cl [Example 22, 4-chloro-N,2,5-trimethyl-N-(3-(thiazol-2-yl)phenyl)benzenesulfonamide]	> 100
Cc1ccccc1S(=O)(=O)Nc1cccc(C(=O)N2CCOC[C@@H]2C)c1 [Example 23, (S)-2-methyl-N-(3-(3-methylmorpholine-4-carbonyl)phenyl)benzenesulfonamide]	> 100
Cc1ccc(C)c(S(=O)(=O)Nc2cccc(C(=O)N3CCSCC3)c2)c1 [Example 24, 2,5-dimethyl-N-(3-(thiomorpholine-4-carbonyl)phenyl)benzenesulfonamide]	> 100
Cc1ccc(C)c(S(=O)(=O)Nc2cccc(C(=O)N(C)C)c2)c1 [Example 25, 3-((2,5-dimethylphenyl)sulfonamido)-N,N-dimethylbenzamide]	> 100
Cc1ccc(C)c(S(=O)(=O)Nc2cccc(C(=O)N(C)Cc3ccccc3)c2)c1 [Example 26, N-benzyl-3-((2,5-dimethylphenyl)sulfonamido)-N-methylbenzamide]	> 100
Cc1ccc(C)c(S(=O)(=O)Nc2cccc(C(N)=O)c2)c1 [Example 27, 3-((2,5-dimethylphenyl)sulfonamido)benzamide]	> 100
Cc1ccc(C)c(S(=O)(=O)Nc2cccc(C(=O)NCc3ccccc3)c2)c1 [Example 28, N-benzyl-3-((2,5-dimethylphenyl)sulfonamido)benzamide]	> 100
Cc1ccc(C)c(S(=O)(=O)Nc2cccc(C(=O)N3CCOCC3)c2)c1 [Example 29, 2,5-dimethyl-N-(3-(morpholine-4-carbonyl)phenyl)benzenesulfonamide]	> 100
CC(=O)N1CCN(C(=O)c2cccc(NS(=O)(=O)c3cc(C)ccc3C)c2)CC1 [Example 30, N-(3-(4-acetylpiperazine-1-carbonyl)phenyl)-2,5-dimethylbenzenesulfonamide]	> 100
Cc1ccc(C)c(S(=O)(=O)Nc2cccc(C(=O)N3CCN(C)CC3)c2)c1 [Example 31, 2,5-dimethyl-N-(3-(4-methylpiperazine-1-carbonyl)phenyl)benzenesulfonamide]	> 100
Cc1ccc(C)c(S(=O)(=O)Nc2cccc(C(=O)N3CCCCCC3)c2)c1 [Example 32, N-(3-(azepane-1-carbonyl)phenyl)-2,5-dimethylbenzenesulfonamide]	> 100
Cc1ccc(C)c(S(=O)(=O)Nc2cccc(C(=O)N(C)CC3CC3)c2)c1 [Example 33, N-(cyclopropylmethyl)-3-((2,5-dimethylphenyl)sulfonamido)-N-methylbenzamide]	> 100
COc1ccc(S(=O)(=O)Nc2cccc(C(=O)N3CCSCC3C#N)c2)cc1 (centres unmarked) [Example 34, N-(3-(3-cyanothiomorpholine-4-carbonyl)phenyl)-4-methoxybenzenesulfonamide]	> 100

Compound	AC50 [µM]
N#CC1CSCCN1C(=O)c1cccc(NS(=O)(=O)c2cccc(C(F)(F)F)c2)c1 (centres unmarked) [Example 35, N-(3-(3-cyanothiomorpholine-4-carbonyl)phenyl)-3-(trifluoromethyl)benzenesulfonamide]	> 100
Cc1cc(S(=O)(=O)Nc2cccc3c2CC(=O)N3)c(C)cc1Cl [Example 36, 4-chloro-2,5-dimethyl-N-(2-oxoindolin-4-yl)benzenesulfonamide]	> 100
Cc1cc2c(NS(=O)(=O)c3cc(C)c(Cl)cc3C)cccc2[nH]1 [Example 37, 4-chloro-2,5-dimethyl-N-(2-methyl-1H-indol-4-yl)benzenesulfonamide]	> 100
Cc1ccc(C)c(S(=O)(=O)Nc2cncc(C(=O)N3CCOCC3)c2)c1 [Example 38, 2,5-dimethyl-N-(5-(morpholine-4-carbonyl)pyridin-3-yl)benzenesulfonamide]	> 100
Cc1ccc(C)c(S(=O)(=O)Nc2ccc(C(=O)N[C@@H](C)C3CC3)cc2)c1 [Example 39, (S)-N-(1-cyclopropylethyl)-4-((2,5-dimethylphenyl)sulfonamido)benzamide]	> 100
Cc1ccc(C)c(S(=O)(=O)Nc2ccc(C(=O)NCC3CC3)cc2)c1 [Example 40, N-(cyclopropylmethyl)-4-((2,5-dimethylphenyl)sulfonamido)benzamide]	> 100
Cc1ccc(C)c(S(=O)(=O)Nc2cccc(C(=O)N3CCSCC3C(N)=O)c2)c1 (centres unmarked) [Example 41, 4-(3-((2,5-dimethylphenyl)sulfonamido)benzoyl) thiomorpholine-3-carboxamide]	> 100
Cc1cc(NS(=O)(=O)c2cc(C)ccc2C)cc(C(=O)N2CCCC[C@H]2C)c1 [Example 42, (R)-2,5-dimethyl-N-(3-methyl-5-(2-methylpiperidine-1-carbonyl)phenyl)benzenesulfonamide]	> 100
Cc1ccc(C)c(S(=O)(=O)Nc2ccc(C(=O)N3CCCC[C@H]3C)s2)c1 [Example 43, (R)-2,5-dimethyl-N-(5-(2-methylpiperidine-1-carbonyl)thiopheN-2-yl)benzenesulfonamide]	> 100
Cc1cc(S(=O)(=O)Nc2cccc(C(N)=O)c2)c(C)cc1Cl [Example 44, 3-((4-chloro-2,5-dimethylphenyl)sulfonamido)benzamide]	> 100
Cc1cc(S(=O)(=O)Nc2cccc(C(=O)N3CCNCC3)c2)c(C)cc1Cl [Example 46, 4-chloro-2,5-dimethyl-N-(3-(piperazine-1-carbonyl)phenyl)benzenesulfonamide]	> 100
COCCNC(=O)c1cccc(NS(=O)(=O)c2cc(C)c(Cl)cc2C)c1 [Example 47, 3-((4-chloro-2,5-dimethylphenyl)sulfonamido)-N-(2-methoxyethyl)benzamide]	> 100
Cc1cc(S(=O)(=O)Nc2cccc(C(=O)N[C@H](C)c3ccccc3)c2)c(C)cc1Cl [Example 48, (R)-3-((4-chloro-2,5-dimethylphenyl)sulfonamido)-N-(1-phenylethyl)benzamide]	> 100
Cc1cc(S(=O)(=O)Nc2ccc(F)c(C(=O)N3CCC[C@H]3C)c2)c(C)cc1Cl [Example 49, (R)-4-chloro-N-(4-fluoro-3-(2-methylpyrrolidine-1-carbonyl)phenyl)-2,5-dimethylbenzenesulfonamide]	> 100
Cc1cc(S(=O)(=O)Nc2cc(C(=O)N3CCC[C@H]3C)ccc2F)c(C)cc1Cl [Example 50, (R)-4-chloro-N-(2-fluoro-5-(2-methylpyrrolidine-1-carbonyl)phenyl)-2,5-dimethylbenzenesulfonamide]	> 100
Cc1cc(S(=O)(=O)Nc2cccc(C(=O)N[C@H](C)CO)c2)c(C)cc1Cl [Example 51, (R)-3-((4-chloro-2,5-dimethylphenyl)sulfonamido)-N-(1-hydroxypropan-2-yl)benzamide]	> 100
